Source: PMC7465344 (Pharmaceuticals, 2020)

Key:
[1] = target: hA2A AR (Homo sapiens, UniProt P29274); test: Competition binding of [3H]ZM241385 to hA2A AR in CHO cell membranes
Description: (§1) For membrane preparation, the cells were washed with phosphate-buffered saline and scraped off T75 flasks in an ice-cold hypotonic buffer (5 mMTris-HCl, 1 mM EDTA, pH 7.4). The cell suspensions were homogenized with a Polytron, centrifuged for 30 min at 40,000× g at 4 °C and the resulting membrane pellets were used for competition binding experiments [44].
(§2) Non-specific binding was defined as binding in the presence of 1 μM DPCPX and was always <10% of the total binding [44]. […] Non-specific binding was defined as binding in the presence of 1 μM ABMECA and was always < 10% of the total binding [46]. Bound and free radioactivity were separated by filtering the assay mixture through Whatman GF/B glass fiber filters using a Brandel cell harvester (Brandel Instruments, Unterföhring, Germany).
(§3) The protein concentration was determined according to a Bio-Rad method with bovine albumin as a standard reference. […] Ki and IC50 values were calculated by the non-linear regression analysis using the equation for a sigmoid concentration-response curve (Graph-PAD Prism, San Diego, CA, USA).

[2] = target: T1, hA1 AR (Homo sapiens, UniProt P30542); test: Competition binding of [3H]DPCPX to hA1 AR in CHO cell membranes
T1 sequence (P30542 1-326): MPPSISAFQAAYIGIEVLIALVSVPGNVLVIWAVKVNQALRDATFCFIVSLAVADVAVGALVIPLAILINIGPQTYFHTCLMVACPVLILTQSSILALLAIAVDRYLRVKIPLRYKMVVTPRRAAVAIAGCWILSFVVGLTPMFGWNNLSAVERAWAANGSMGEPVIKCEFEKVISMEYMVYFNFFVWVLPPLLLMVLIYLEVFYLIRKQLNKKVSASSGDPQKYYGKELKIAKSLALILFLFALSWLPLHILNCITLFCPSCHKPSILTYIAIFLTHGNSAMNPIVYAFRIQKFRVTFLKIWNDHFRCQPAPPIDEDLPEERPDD
Description: as §1, §2, §3

[3] = target: T2, hA3 AR (Homo sapiens, UniProt P0DMS8); test: Competition binding of [125I]AB-MECA to hA3 AR in CHO cell membranes; settings: for inhibition at 10 µM: read-out: hA3AR percentage of inhibition (I%)
T2 sequence (P0DMS8 1-318): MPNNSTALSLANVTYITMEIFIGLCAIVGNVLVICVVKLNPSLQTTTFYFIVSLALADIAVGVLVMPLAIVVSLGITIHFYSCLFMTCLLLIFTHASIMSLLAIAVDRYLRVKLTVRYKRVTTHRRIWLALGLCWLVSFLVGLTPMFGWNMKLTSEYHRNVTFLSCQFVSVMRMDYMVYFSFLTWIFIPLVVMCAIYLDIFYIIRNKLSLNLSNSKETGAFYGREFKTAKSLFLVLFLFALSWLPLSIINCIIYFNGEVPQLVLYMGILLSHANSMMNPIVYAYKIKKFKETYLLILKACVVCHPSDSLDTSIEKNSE
Description: as §1, §2, §3

[4] = target: T3, hA2B AR (Homo sapiens, UniProt P29275); test: Inhibition of NECA stimulated adenylyl cyclase activity (cAMP assay) in CHO cells expressing hA2B receptor; type: cell-based; settings: for inhibition at 10 µM: CHO, at 10 μM of tested compound, cAMP assay, read-out: hA2BAR percentage of inhibition (I%); for IC50: NECA stimulated cAMP, hA2B CHO cells, read-out: hA2BAR IC50 (potency in cAMP assay)
T3 construct: expressed in transfected cells; host or cells: CHO cells
T3 sequence (P29275 1-332): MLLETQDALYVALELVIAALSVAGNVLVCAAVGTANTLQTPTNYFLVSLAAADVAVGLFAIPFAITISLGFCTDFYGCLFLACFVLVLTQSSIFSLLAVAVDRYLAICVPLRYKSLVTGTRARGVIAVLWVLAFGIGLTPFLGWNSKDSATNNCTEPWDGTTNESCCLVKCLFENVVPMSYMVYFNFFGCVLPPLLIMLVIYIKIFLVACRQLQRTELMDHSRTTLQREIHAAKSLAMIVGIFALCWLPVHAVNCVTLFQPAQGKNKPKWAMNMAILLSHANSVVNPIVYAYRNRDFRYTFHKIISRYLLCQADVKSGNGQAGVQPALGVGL
Description: At the end of the experiments, plates were read with the Perkin Elmer EnSight Multimode Plate Reader.

hA2A AR, sequence (P29274 whole entry): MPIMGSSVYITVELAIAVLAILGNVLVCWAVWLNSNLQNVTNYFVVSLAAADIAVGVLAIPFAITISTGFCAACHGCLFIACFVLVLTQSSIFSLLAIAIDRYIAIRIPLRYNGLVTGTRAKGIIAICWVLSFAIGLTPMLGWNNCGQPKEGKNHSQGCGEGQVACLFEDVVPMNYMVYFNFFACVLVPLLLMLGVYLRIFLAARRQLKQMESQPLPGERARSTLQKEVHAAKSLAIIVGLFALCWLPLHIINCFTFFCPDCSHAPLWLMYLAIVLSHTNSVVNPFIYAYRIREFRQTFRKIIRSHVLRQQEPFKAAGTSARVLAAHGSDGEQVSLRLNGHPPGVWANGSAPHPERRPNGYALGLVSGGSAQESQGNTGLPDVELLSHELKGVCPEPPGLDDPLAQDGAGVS

Row | Ki [1] | Ki [2] | Ki [3] | inhibition at 10 µM [3] | melting point | inhibition at 10 µM [4] | IC50 [4] | hA1AR Ki ([2]; displacement of [3H]DPCPX, CHO cells, mean ± SEM, n = 3–6) | SMILES
1 | 0.092 ± 0.008 µM | 0.798 ± 0.072 µM | > 10 µM | 17% | 133 to 135 °C | 26% | > 10 µM |  | Nc1nc(NCCN2CCN(Cc3ccccc3)CC2)nc2sc(-c3ccco3)nc12 [compound 12, N^5-(2-(4-Benzylpiperazin-1-yl)ethyl)-2-(furan-2-yl)thiazolo[5,4-d]pyrimidine-5,7-diamine]
2 | 0.058 ± 0.005 µM | 0.18 ± 0.015 µM | 0.868 ± 0.082 µM |  | 181 to 183 °C | 26% |  | good affinities | Nc1nc(N2CCN(Cc3ccccc3)CC2)nc2sc(-c3ccco3)nc12 [compound 3, 5-(4-Benzylpiperazin-1-yl)-2-(furan-2-yl)thiazolo[5,4-d]pyrimidin-7-amine]
3 | 0.137 ± 0.011 µM | 2.77 ± 0.249 µM | 0.816 ± 0.074 µM |  | 227 to 229 °C | 10% | > 10 µM |  | Nc1nc(N2CCN(C(=O)c3ccco3)CC2)nc2sc(-c3ccco3)nc12 [compound 6, (4-(7-Amino-2-(furan-2-yl)thiazolo[5,4-d]pyrimidin-5-yl)piperazin-1-yl)(furan-2-yl)methanone]
4 | 0.029 ± 0.003 µM | 0.345 ± 0.028 µM | > 10 µM | 34% | 183 to 186 °C | 23% | > 10 µM |  | CN(C)CCN1CCN(c2nc(N)c3nc(-c4ccco4)sc3n2)CC1 [compound 7, 5-(4-(2-(Dimethylamino)ethyl)piperazin-1-yl)-2-(furan-2-yl)thiazolo[5,4-d]pyrimidin-7-amine]
